Measurements reported in PubChem BioAssay AID330 (DTP/NCI, 2004).
“And” between values parts separate entries of the source, which are not always exact repeats. Equal values may be shown once. Inconclusive results and toxic doses are left out.

Test system: P388 leukemia ip, CD2F1 mice, survival T/C
Test: NCI In Vivo Anticancer Drug Screen. Data for tumor model P388 Leukemia (intraperitoneal) in CD2F1 (CDF1) mice
Conditions: endpoint: median survival time, higher = longer survival
Procedure, shortened: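 Mice carrying the transplanted tumor received test compound or vehicle. Survival was recorded in each group, and the value is the treated-group measurement divided by that of the vehicle-treated control group.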

[1] = dose: 50.0 mg/kg/injection, schedule: Q01DX005 (ip), vehicle: saline with Tween-80
[2] = dose: 100.0 mg/kg/injection, schedule: Q01DX005 (ip), vehicle: saline with Tween-80
[3] = dose: 200.0 mg/kg/injection, schedule: Q01DX005 (ip), vehicle: saline with Tween-80
[4] = dose: 12.5 mg/kg/injection, schedule: Q01DX005 (ip), vehicle: saline with Tween-80
[5] = dose: 25.0 mg/kg/injection, schedule: Q01DX005 (ip), vehicle: saline with Tween-80
[6] = dose: 50.0 mg/kg/injection, schedule: Q01DX005 (ip), vehicle: saline
[7] = dose: 100.0 mg/kg/injection, schedule: Q01DX005 (ip), vehicle: saline
[8] = dose: 200.0 mg/kg/injection, schedule: Q01DX005 (ip), vehicle: saline
[9] = dose: 50.0 mg/kg/injection, schedule: Q01DX009 (ip), vehicle: saline
[10] = dose: 50.0 mg/kg/injection, schedule: Q01DX009 (ip), vehicle: saline with Tween-80
[11] = dose: 100.0 mg/kg/injection, schedule: Q01DX009 (ip), vehicle: saline with Tween-80
[12] = dose: 200.0 mg/kg/injection, schedule: Q01DX009 (ip), vehicle: saline with Tween-80
[13] = dose: 100.0 mg/kg/injection, schedule: Q01DX009 (ip), vehicle: saline
[14] = dose: 25.0 mg/kg/injection, schedule: Q01DX005 (ip), vehicle: saline

With CC1CCCC(C)N1C(=O)C(Cl)(Cl)Cl (stereo not given) the T/C [1] was 100 % of control, the T/C [2] was 100 % of control and the T/C [3] was 100 % of control.

In the case of CCc1ccc(-c2cc(-c3ccc(CC)cc3)cc(-c3ccc(CC)cc3)c2)cc1, the T/C (dose: 60.0 mg/kg/injection, schedule: Q01DX005 (ip), vehicle: saline with Tween-80) was 100 % of control, the T/C [2] was 94 % of control and the T/C [3] was 91 % of control.

With Cn1cc(NC(=O)c2cc(NC(=O)c3cc(NC=O)cn3C)cn2C)cc1C(=O)O the T/C (dose: 12.5 mg/kg/injection, schedule: Q01DX005 (ip), vehicle: Klucel (hydroxypropylcellulose) (HPC)) was 100 % of control, the T/C (dose: 25.0 mg/kg/injection, schedule: Q01DX005 (ip), vehicle: Klucel (hydroxypropylcellulose) (HPC)) was 100 % of control and the T/C (dose: 50.0 mg/kg/injection, schedule: Q01DX005 (ip), vehicle: Klucel (hydroxypropylcellulose) (HPC)) was 107 % of control.

In the case of C(#CC1CO1)CCCC#CC1CO1 (stereo not given), the T/C [4] was 106 % of control, the T/C [5] was 110 % of control and the T/C [1] was 107 % of control and 124 % of control.

CC1(C)SC(C)(c2ccc[nH]2)N(c2nccs2)C1=O (stereo not given) was tested, and the T/C (dose: 60.0 mg/kg/injection, schedule: Q01DX005 (ip), vehicle: Klucel (hydroxypropylcellulose) (HPC)) was 106 % of control, the T/C (dose: 120.0 mg/kg/injection, schedule: Q01DX005 (ip), vehicle: Klucel (hydroxypropylcellulose) (HPC)) was 104 % of control and the T/C (dose: 240.0 mg/kg/injection, schedule: Q01DX005 (ip), vehicle: Klucel (hydroxypropylcellulose) (HPC)) was 102 % of control.

For CC(C)NCc1ccccc1Sc1ccccc1, the T/C (dose: 25.0 mg/kg/injection, schedule: Q01DX001 (ip), vehicle: saline with Tween-80) was 96 % of control, the T/C (dose: 50.0 mg/kg/injection, schedule: Q01DX001 (ip), vehicle: saline with Tween-80) was 104 % of control and the T/C (dose: 100.0 mg/kg/injection, schedule: Q01DX001 (ip), vehicle: saline with Tween-80) was 95 % of control.

For COc1ccc(N2C(=O)C(=O)C(C(C)=O)C2=O)cc1 (stereo not given), the T/C (dose: 100.0 mg/kg/injection, schedule: Q04DX002 (ip), vehicle: saline with Tween-80) was 100 % of control and the T/C (dose: 200.0 mg/kg/injection, schedule: Q04DX002 (ip), vehicle: saline with Tween-80) was 94 % of control.

For CCOC(=O)C(C)n1ncnn1 (stereo not given), the T/C [6] was 107 % of control, the T/C [7] was 102 % of control and the T/C [8] was 98 % of control.

FC(F)(F)c1ccccc1NC(=S)SCc1ccc2c(c1)OCO2 was tested, and the T/C (dose: 12.5 mg/kg/injection, schedule: Q01DX009 (ip), vehicle: saline) was 97 % of control, the T/C (dose: 25.0 mg/kg/injection, schedule: Q01DX009 (ip), vehicle: saline) was 90 % of control and the T/C [9] was 100 % of control.

For Cc1ccc2c(c1)C(O)(CC(=O)c1ccccc1)C(=O)N2 (stereo not given), the T/C [10] was 99 % of control, the T/C [11] was 96 % of control and the T/C [12] was 95 % of control.

For [Cl][Pt+2][Cl].[NH-]C1CCCCCCC1.[NH-]C1CCCCCCC1, the T/C (dose: 12.5 mg/kg/injection, schedule: Q01DX009 (ip), vehicle: other) was 106 % of control, the T/C (dose: 25.0 mg/kg/injection, schedule: Q01DX009 (ip), vehicle: other) was 97 % of control and the T/C (dose: 50.0 mg/kg/injection, schedule: Q01DX009 (ip), vehicle: other) was 101 % of control. The T/C (dose: 100.0 mg/kg/injection, schedule: Q01DX009 (ip), vehicle: other) was 117 % of control and the T/C (dose: 200.0 mg/kg/injection, schedule: Q01DX009 (ip), vehicle: other) was 108 % of control.

In the case of CC1(C)SC2C(NC(=O)C(N)c3ccccc3)C(=O)N2C1C(=O)O (stereo not given), the T/C (dose: 100.0 mg/kg/injection, schedule: Q04DX003 (ip), vehicle: saline with Tween-80) was 95 % of control, the T/C (dose: 150.0 mg/kg/injection, schedule: Q01DX009 (ip), vehicle: saline with Tween-80) was 100 % of control and the T/C (dose: 200.0 mg/kg/injection, schedule: Q04DX003 (ip), vehicle: saline with Tween-80) was 100 % of control. For the same compound, the T/C (dose: 300.0 mg/kg/injection, schedule: Q01DX009 (ip), vehicle: saline with Tween-80) was 109 % of control, the T/C (dose: 400.0 mg/kg/injection, schedule: Q04DX003 (ip), vehicle: saline with Tween-80) was 100 % of control and the T/C (dose: 600.0 mg/kg/injection, schedule: Q01DX009 (ip), vehicle: saline with Tween-80) was 109 % of control.

For O=C(CC(=O)NO)NO, the T/C [10] was 106 % of control, the T/C [9] was 115 % of control and the T/C [11] was 108 % of control. The T/C [13] was 110 % of control, the T/C [12] was 108 % of control and the T/C (dose: 200.0 mg/kg/injection, schedule: Q01DX009 (ip), vehicle: saline) was 108 % of control.

For Cc1cc2nnc(-c3ccc(C#N)cc3)n2c2nnnn12, the T/C [5] was 100 % of control, the T/C [1] was 100 % of control and the T/C [2] was 104 % of control. The T/C [3] was 104 % of control.

In the case of O=C(CNC(=O)c1ccccc1)OC(C(=O)O)c1ccc(F)cc1 (stereo not given), the T/C [10] was 100 % of control, the T/C [11] was 102 % of control and the T/C [12] was 96 % of control.

For CCCCOc1ccc(C(=O)OCCNC2CCCCC2)cc1N, the T/C (dose: 6.25 mg/kg/injection, schedule: Q01DX009 (ip), vehicle: Klucel (hydroxypropylcellulose) (HPC)) was 100 % of control, the T/C (dose: 12.5 mg/kg/injection, schedule: Q01DX009 (ip), vehicle: Klucel (hydroxypropylcellulose) (HPC)) was 101 % of control and the T/C (dose: 25.0 mg/kg/injection, schedule: Q01DX009 (ip), vehicle: Klucel (hydroxypropylcellulose) (HPC)) was 93 % of control. For the same compound, the T/C (dose: 50.0 mg/kg/injection, schedule: Q01DX009 (ip), vehicle: Klucel (hydroxypropylcellulose) (HPC)) was 91 % of control.

With O=NN(CCS(=O)CCCl)C(=O)NC1CCCCC1 (stereo not given) the T/C (dose: 3.13 mg/kg/injection, schedule: Q01DX009 (ip), vehicle: water) was 102 % of control, the T/C (dose: 6.25 mg/kg/injection, schedule: Q01DX009 (ip), vehicle: water) was 110 % of control and the T/C (dose: 12.5 mg/kg/injection, schedule: Q01DX009 (ip), vehicle: water) was 111 % of control. For the same compound, the T/C (dose: 25.0 mg/kg/injection, schedule: Q01DX009 (ip), vehicle: water) was 124 % of control and the T/C (dose: 100.0 mg/kg/injection, schedule: Q01DX009 (ip), vehicle: water) was 159 % of control.

In the case of Cc1ccccc1-n1c(-c2ccccc2)cs/c1=N\N=C1/CSC(=O)N1Cc1ccccc1, the T/C (dose: 100.0 mg/kg/injection, schedule: Q01DX001 (ip), vehicle: Klucel (hydroxypropylcellulose) (HPC)) was 107 % of control, the T/C (dose: 200.0 mg/kg/injection, schedule: Q01DX001 (ip), vehicle: Klucel (hydroxypropylcellulose) (HPC)) was 104 % of control and the T/C (dose: 400.0 mg/kg/injection, schedule: Q01DX001 (ip), vehicle: Klucel (hydroxypropylcellulose) (HPC)) was 89 % of control.

For COc1cccc(N=Nc2c(C)nn(C(=S)S)c2C)c1, the T/C [1] was 101 % of control, the T/C [2] was 100 % of control and the T/C [3] was 94 % of control.

Br/N=C1/C=CC=C/C1=N/Br was tested, and the T/C [14] was 105 % of control and 108 % of control, the T/C [6] was 107 % of control and 110 % of control and the T/C [7] was 100 % of control and 107 % of control and 123 % of control. The T/C [8] was 98 % of control and 100 % of control and 106 % of control.

With C/C(=N\NC(=S)N(C)C1CCCCC1)c1ccc2ccccc2n1 the T/C (dose: 6.25 mg/kg/injection, schedule: Q01DX005 (ip), vehicle: saline with Tween-80) was 103 % of control and 114 % of control, the T/C [4] was 111 % of control and 115 % of control and the T/C [5] was 150 % of control.

In the case of COc1ccc(C2CC(=O)N(CC(=O)O)C(=O)C2)cc1, the T/C (dose: 100.0 mg/kg/injection, schedule: Q04DX003 (ip), vehicle: suspension in saline) was 103 % of control, the T/C (dose: 200.0 mg/kg/injection, schedule: Q04DX003 (ip), vehicle: suspension in saline) was 100 % of control and the T/C (dose: 400.0 mg/kg/injection, schedule: Q04DX003 (ip), vehicle: suspension in saline) was 99 % of control.

In the case of O=[N+]([O-])c1cc2c(cc1S(=O)(=O)O)C1C(C3C2C2(Cl)C(Cl)=C(Cl)C3(Cl)C2(Cl)Cl)C2(Cl)C(Cl)=C(Cl)C1(Cl)C2(Cl)Cl (stereo not given), the T/C [9] was 101 % of control and the T/C [13] was 98 % of control.

C[CH2][Sn]([CH2]C)([CH2]CC(=O)OC)[CH2]CC(=O)OC was tested, and the T/C (dose: 12.5 mg/kg/injection, schedule: Q01DX005 (ip), vehicle: saline) was 113 % of control, the T/C [14] was 120 % of control and the T/C [7] was 119 % of control.

In the case of CC1(C(N)C(=O)O)CC(Cl)=NO1 (stereo not given), the T/C (dose: 4.0 mg/kg/injection, schedule: Q01DX009 (ip), vehicle: other) was 108 % of control, the T/C (dose: 8.0 mg/kg/injection, schedule: Q01DX009 (ip), vehicle: other) was 103 % of control and the T/C (dose: 16.0 mg/kg/injection, schedule: Q01DX009 (ip), vehicle: other) was 100 % of control. For the same compound, the T/C (dose: 32.0 mg/kg/injection, schedule: Q01DX009 (ip), vehicle: other) was 103 % of control, the T/C (dose: 64.0 mg/kg/injection, schedule: Q01DX009 (ip), vehicle: other) was 103 % of control and the T/C (dose: 128.0 mg/kg/injection, schedule: Q01DX009 (ip), vehicle: other) was 94 % of control.

With [Cl][Pt+2][Cl].[NH-]C(c1ccc(Cl)cc1)C([NH-])c1ccc(Cl)cc1 (stereo not given) the T/C (dose: 6.25 mg/kg/injection, schedule: Q04DX002 (ip), vehicle: saline with Tween-80) was 124 % of control.
